Reference: article PMC4005788 (Nature medicine, 2013)

Assays:
rats = experiment: Accelerating rotorod assay; type: in vivo, rat; settings: equipotent oral doses, 2 h post-dose
Metabolite analyses = type: in vivo; settings: not shown
PNI rats = experiment: Paw withdrawal threshold; type: in vivo, rat
rat hepatoma H4IIE cells = experiment: Caspase-3 activation in H4IIE cells; type: cell-based; settings: 24-h exposure, up to 300 μM
GABAA receptor = experiment: Evoked GABAA currents in SDH neurons with VU0240551; type: cell-based, rat; settings: acute application, 25 and 100 μM, in the presence of VU0240551
KCC2 [1] = molecular target: T1, KCC2 (Rattus norvegicus, UniProt Q63633); experiment: Imaging of K+-driven Cl− transport; type: cell-based; settings: for increase of the rate of Cl− accumulation: 25 μM, 15 mM KCl
T1 sequence (Q63633 1-1116 isoform Q63633-2): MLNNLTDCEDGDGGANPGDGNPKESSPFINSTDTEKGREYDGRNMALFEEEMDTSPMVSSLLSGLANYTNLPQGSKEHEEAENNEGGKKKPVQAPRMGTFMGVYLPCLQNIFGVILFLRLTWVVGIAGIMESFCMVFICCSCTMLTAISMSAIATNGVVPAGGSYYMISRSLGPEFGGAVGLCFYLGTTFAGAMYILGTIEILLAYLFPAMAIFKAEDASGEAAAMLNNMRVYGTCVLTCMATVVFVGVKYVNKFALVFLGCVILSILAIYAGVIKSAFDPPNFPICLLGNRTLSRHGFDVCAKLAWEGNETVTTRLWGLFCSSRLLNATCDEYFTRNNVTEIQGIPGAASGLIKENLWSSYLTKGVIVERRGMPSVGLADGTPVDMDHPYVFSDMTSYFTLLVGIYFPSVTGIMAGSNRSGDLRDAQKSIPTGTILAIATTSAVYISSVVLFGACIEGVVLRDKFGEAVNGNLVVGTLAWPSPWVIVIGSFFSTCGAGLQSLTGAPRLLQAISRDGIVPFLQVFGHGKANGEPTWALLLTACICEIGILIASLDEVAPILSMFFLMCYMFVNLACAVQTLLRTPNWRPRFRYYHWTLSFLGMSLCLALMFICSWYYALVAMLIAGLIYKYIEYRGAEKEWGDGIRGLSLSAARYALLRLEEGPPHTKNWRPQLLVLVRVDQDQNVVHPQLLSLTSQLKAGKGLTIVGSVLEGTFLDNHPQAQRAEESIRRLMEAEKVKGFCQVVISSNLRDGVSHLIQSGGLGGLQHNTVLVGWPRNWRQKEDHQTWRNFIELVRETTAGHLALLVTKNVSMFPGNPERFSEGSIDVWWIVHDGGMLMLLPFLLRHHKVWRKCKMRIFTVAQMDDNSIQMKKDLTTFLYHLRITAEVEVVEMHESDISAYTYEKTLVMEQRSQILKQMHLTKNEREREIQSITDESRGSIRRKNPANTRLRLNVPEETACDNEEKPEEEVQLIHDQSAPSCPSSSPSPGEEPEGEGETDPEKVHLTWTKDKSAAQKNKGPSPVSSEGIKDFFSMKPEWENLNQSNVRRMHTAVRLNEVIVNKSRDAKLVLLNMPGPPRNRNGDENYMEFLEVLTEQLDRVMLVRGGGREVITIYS

[2] = molecular target: recombinant α1β2γ2 GABAA receptors (Homo sapiens, UniProt P14867+P18507+P47870); experiment: GABAA receptor automated whole cell patch-clamp in CHO cells; type: cell-based; settings: 50 μM CLP257, CHO cells
HEK293-cl cells = experiment: Clomeleon assay of [Cl−]i in HEK293-cl cells; type: cell-based, Human; settings: HEK293-cl cells (no KCC2; express NKCC1, KCC1, KCC3, KCC4)
NG108-cl cells = experiment: Clomeleon assay of [Cl−]i in NG108-cl cells; type: cell-based
[3] = test system: 55 radioligand-receptor interactions; experiment: Radioligand competition binding screen, whole panel; settings: 10 μM CLP257, 55 interactions
[4] = Pharmacokinetic analysis in rats; type: in vivo; settings: rat
KCC2 [5] = molecular target: T1, KCC2; experiment: Cell surface biotinylation and immunoblot of KCC2 in BDNF-treated spinal slices; type: cell-based; settings: 100 μM, BDNF-pretreated slices
hERG channel = hERG channel (Homo sapiens, UniProt Q12809); experiment: hERG inhibition of tail current, automated patch-clamp; type: cell-based
[6] = test system: superficial dorsal horn (SDH) neurons; experiment: Whole-cell recording of EGABA under Cl− load in superficial dorsal horn neurons; type: cell-based, rat; settings: 25 μM, BDNF-treated and PNI slices
other CCCs = experiment: Rb+ flux assay in X. laevis oocytes expressing other CCCs; type: cell-based; settings: 200 nM pre-incubation
[7] = test system: superficial dorsal horn field responses; type: in vivo, rat; settings: local spinal 100 μM
KCC2 [8] = molecular target: T2, KCC2 (Homo sapiens, UniProt Q9H2X9); experiment: Rb+ flux assay in X. laevis oocytes expressing KCC2; type: cell-based; settings: 200 nM pre-incubation, 45 min Rb+ influx, vs vehicle
T2 sequence (Q9H2X9 1-1139): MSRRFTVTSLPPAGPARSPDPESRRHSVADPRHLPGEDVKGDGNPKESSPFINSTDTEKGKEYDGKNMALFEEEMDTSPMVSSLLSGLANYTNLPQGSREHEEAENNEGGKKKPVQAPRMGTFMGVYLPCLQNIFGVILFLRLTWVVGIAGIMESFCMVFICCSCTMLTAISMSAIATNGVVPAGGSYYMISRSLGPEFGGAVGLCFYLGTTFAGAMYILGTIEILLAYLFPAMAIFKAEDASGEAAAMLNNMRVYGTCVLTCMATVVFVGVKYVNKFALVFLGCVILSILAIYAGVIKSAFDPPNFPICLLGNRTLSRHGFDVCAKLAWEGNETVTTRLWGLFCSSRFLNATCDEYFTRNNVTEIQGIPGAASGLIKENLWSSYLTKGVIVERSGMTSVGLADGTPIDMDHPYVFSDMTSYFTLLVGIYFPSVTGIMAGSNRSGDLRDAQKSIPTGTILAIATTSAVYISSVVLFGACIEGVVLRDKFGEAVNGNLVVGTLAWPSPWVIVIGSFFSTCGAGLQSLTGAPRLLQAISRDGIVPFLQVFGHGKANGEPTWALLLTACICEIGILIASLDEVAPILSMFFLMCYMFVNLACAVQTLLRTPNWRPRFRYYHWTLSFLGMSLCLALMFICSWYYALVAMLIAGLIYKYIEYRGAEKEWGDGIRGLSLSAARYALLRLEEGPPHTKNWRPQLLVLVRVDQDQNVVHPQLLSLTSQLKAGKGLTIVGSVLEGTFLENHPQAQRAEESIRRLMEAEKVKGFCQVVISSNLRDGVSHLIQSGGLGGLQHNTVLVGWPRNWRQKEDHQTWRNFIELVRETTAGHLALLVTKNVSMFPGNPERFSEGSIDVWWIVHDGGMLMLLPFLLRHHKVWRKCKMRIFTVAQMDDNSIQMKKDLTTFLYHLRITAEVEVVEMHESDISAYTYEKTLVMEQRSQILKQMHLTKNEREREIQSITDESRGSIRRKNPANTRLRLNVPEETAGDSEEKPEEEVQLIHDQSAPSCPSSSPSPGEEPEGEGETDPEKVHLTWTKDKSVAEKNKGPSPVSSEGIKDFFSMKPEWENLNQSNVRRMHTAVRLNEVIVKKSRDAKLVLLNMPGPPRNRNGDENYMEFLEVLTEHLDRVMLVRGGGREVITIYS

[9] = 5 h, [Cl−]i reduction, clomeleon assay, 5 h exposure
[10] = [Cl−]i reduction, clomeleon assay, 5 h exposure

Chain of hERG channel (Q12809 whole entry): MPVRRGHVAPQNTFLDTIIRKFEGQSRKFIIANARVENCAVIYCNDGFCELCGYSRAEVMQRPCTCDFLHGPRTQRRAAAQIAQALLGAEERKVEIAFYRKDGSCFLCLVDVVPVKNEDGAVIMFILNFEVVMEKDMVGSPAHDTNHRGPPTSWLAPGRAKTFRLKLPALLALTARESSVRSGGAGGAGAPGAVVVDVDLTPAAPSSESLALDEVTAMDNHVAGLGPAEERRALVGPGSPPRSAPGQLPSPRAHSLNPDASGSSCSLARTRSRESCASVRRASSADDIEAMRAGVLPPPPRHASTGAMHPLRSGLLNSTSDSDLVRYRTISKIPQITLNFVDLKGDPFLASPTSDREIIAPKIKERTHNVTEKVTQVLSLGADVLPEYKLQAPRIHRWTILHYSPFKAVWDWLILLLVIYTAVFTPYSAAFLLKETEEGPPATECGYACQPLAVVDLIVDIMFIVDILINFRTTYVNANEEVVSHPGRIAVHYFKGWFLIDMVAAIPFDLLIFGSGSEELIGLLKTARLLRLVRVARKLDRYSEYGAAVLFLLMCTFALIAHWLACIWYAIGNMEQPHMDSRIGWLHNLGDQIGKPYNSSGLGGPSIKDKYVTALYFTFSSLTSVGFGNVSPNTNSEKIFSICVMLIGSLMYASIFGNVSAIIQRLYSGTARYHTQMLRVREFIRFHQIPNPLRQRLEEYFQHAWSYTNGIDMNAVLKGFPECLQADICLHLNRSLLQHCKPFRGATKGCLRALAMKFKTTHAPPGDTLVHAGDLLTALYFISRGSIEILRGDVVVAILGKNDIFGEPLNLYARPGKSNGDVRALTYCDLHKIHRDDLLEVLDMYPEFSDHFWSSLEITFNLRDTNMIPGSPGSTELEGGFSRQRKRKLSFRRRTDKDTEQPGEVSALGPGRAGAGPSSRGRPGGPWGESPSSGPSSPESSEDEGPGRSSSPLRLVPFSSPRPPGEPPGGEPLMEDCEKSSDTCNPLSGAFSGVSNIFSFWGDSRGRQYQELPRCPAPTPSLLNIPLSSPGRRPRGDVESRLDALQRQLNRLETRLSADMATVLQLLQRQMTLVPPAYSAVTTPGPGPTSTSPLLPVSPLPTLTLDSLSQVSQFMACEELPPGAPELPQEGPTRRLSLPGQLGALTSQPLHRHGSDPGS
Chain of recombinant α1β2γ2 GABAA receptors (P14867 28-456): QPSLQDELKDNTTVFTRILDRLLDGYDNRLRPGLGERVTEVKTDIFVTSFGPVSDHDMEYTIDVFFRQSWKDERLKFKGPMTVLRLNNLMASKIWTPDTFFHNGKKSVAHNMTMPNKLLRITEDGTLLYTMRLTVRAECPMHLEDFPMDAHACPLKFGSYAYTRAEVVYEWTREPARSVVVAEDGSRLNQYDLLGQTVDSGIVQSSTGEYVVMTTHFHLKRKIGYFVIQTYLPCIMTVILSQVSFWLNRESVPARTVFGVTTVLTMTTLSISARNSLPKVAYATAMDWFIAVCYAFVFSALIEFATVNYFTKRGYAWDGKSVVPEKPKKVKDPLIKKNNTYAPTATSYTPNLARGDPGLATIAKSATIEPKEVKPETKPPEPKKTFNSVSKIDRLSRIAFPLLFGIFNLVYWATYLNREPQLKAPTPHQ
Chain of recombinant α1β2γ2 GABAA receptors (P47870 25-512 limits assumed): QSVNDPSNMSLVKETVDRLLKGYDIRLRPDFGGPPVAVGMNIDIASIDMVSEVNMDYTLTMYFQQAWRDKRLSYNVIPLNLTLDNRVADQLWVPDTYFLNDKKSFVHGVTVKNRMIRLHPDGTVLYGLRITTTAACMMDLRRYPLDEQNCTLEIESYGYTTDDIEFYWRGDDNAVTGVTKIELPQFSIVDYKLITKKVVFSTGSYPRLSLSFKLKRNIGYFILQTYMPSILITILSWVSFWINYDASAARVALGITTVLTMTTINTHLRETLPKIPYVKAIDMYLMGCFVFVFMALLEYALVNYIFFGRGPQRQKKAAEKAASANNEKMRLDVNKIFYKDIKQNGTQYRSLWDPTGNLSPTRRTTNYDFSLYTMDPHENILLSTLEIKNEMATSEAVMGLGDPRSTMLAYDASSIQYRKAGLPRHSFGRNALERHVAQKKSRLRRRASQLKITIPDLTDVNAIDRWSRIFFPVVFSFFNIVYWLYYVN
Chain of recombinant α1β2γ2 GABAA receptors (P18507 40-475): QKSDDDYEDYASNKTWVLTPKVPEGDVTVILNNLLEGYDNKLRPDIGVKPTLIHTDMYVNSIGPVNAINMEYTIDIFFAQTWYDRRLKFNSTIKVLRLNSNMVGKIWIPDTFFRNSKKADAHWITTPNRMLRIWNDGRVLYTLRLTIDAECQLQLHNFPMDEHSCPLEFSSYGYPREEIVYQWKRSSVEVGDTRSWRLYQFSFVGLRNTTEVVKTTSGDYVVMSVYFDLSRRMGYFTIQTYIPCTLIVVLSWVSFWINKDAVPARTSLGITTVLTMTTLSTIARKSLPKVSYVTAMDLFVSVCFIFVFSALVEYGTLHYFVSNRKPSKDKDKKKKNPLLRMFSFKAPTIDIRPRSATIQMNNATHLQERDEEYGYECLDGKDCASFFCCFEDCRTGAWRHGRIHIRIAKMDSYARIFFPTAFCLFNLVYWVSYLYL

## CC(C)C[C@H](CN)CC(=O)O [Pregabalin, reference compound]
rats
  motor function on accelerating rotorod: depressed motor function

## O=C1N=C(N2CCCCN2)S/C1=C\c1ccc(F)cc1O [CLP257, (5Z)-2-(1,2-diazinan-1-yl)-5-[(4-fluoro-2-hydroxyphenyl)methylidene]-4,5-dihydro-1,3-thiazol-4-one]
Metabolite analyses
  metabolism of the hydroxyl moiety: rapidly undergoes glucuronidation
PNI rats; IP
  maximal analgesic effect compared with Gabapentin: much weaker than that of Gabapentin
PNI rats; IP, peaking at 100 mg kg^−1, 2 h post-injection
  mechanical withdrawal thresholds: increased withdrawal thresholds
Rat hepatoma H4IIE cells
  Caspase-3 activation: not detected
GABAA receptor
  effect on evoked GABAA currents: no effect
KCC2 [1]; BDNF-treated spinal slices
  increase of the rate of Cl− accumulation: 26%
KCC2 [1]; PNI spinal slices
  increase of the rate of Cl− accumulation: 45%
KCC2 [1]; 100 μM, BDNF-treated slices
  Cl− transport: completely restored Cl^− transport to control levels
[2]
  agonist effect relative to the effect of 5 μM muscimol: < 0.2%
HEK293-cl cells
  change in [Cl−]i: no change
NG108-cl cells; [9]
  EC50: 0.616 µM
NG108-cl cells; NG108-cl cells
  Maximal [Cl−]i reduction: ~ 40%
NG108-cl cells; at maximal effect
  drop from resting [Cl−]i of 57 mM: 23 mM
[3]
  inhibition of radioligand-receptor interactions, maximum over the panel: ≤ 30%
[4]; male, Sprague-Dawley, plasma
  half-life: < 15 min
KCC2 [5]
  cell surface expression of KCC2 monomers and dimers: increased
  total KCC2 expression: not significantly affected
hERG channel
  IC50: 449 µM
[6]
  EGABA (reversal potential for GABAA currents): hyperpolarized
Other CCCs
  change of transport activity (Rb+ influx) in other CCCs: no change
[7]; animals with nerve injury (PNI)
  evoked field responses: renormalized
[7]; naïve animals, 2.5 to 135 g (mm^2)^−1
  effect on the stimulus-response relationship of evoked field responses: no effect
KCC2 [8]
  increase of KCC2 transport activity (Rb+ influx): 61%

## O=C1N=C(N2CCCCC2)S/C1=C\c1ccccc1O [CL-058, (5Z)-5-[(2-hydroxyphenyl)methylidene]-2-(piperidin-1-yl)-4,5-dihydro-1,3-thiazol-4-one]
NG108-cl cells; [10]
  EC50: 31.5 µM

## O=C1N=C(N2CCCCN2)S/C1=C\c1ccc(F)cc1OC1OC(C(=O)O)C(O)C(O)C1O (centres unmarked) [CLP386, 6-(2-{[(5Z)-2-(1,2-diazinan-1-yl)-4-oxo-4,5-dihydro-1,3-thiazol-5-ylidene]methyl}-5-fluorophenoxy)-3,4,5-trihydroxyoxane-2-carboxylic acid]
NG108-cl cells; [10]
  EC50 (μM): inactive

## Cc1csc(NC(=O)CSc2ccc(-c3ccccc3)nn2)n1 [VU0240551, reference compound]
NG108-cl cells; CLP257 500 nM, 5 h exposure
  antagonism of the [Cl−]i response to CLP257: dose-dependent antagonism

## O=C1N=C(N2CCCCN2)S/C1=C\c1ccc(F)cc1OC(=O)N1CCCC1 [CLP290, 2-{[(5Z)-2-(1,2-diazinan-1-yl)-4-oxo-4,5-dihydro-1,3-thiazol-5-ylidene]methyl}-5-fluorophenyl pyrrolidine-1-carboxylate]
PNI rats; PO, 100 mg kg^−1 vs Pregabalin 30 mg kg^−1
  maximal oral analgesic efficacy: equivalent to that of Pregabalin
rats
  motor function on accelerating rotorod: no effect
[4]; analyte CLP257 after CLP290
  maximal plasma concentration and exposure of CLP257 vs native CLP257: improved maximal plasma concentration and exposure
hERG channel
  IC50: 224 µM

## Oc1cc(F)ccc1/C=C1\SC(N2CCCCN2)=NC1=S [CLP355, (5Z)-2-(1,2-diazinan-1-yl)-5-[(4-fluoro-2-hydroxyphenyl)methylidene]-4,5-dihydro-1,3-thiazole-4-thione]
NG108-cl cells; [9]
  EC50: 0.05 µM
